Columns and labels:
Assay in all cases: cells
Set-up in all cases: Cell growth inhibition, sulforhodamine B total protein staining
A204 = conditions: Homo sapiens, A204; 72 h growth; read-out: Cell growth inhibition IC50/µM
Experimental: (§1) Cell panel profiling A panel of 94 cell lines was exposed to Glupin for 72 h to assess the influence on cell growth (Oncolead, Germany). Cell growth was determined using sulforhodamine B assay. Measurements were performed using a total protein staining protocol. Briefly, after treatement cells were fixed addition of 10% TCA (for adherent growing cells) or 50% TCA (for semi-adherent growing cells or cells growing in suspension). After an incubation at 4°C for 1 h, plates were washed twice with 400 μl of deionized water and dried. Cells were then stained with 100 μl of 0.04% wt/v sulforhodamine B. Plates were incubated at room temperature for at least 30 min and washed six times with 1% acetic acid to remove unbound stain. […] This effect was much stronger at a physiological glucose concentration (5 mM; Figure 5 b,c). […] IC50 values lower than 300 nM were obtained for more than 20 cell lines, whereas 24 cell lines were not affected by the compound, among them the peripheral blood mononuclear control cells (PBMCs). Sensitivity to Glupin was detected across various tissue types (Table S6).

A673 = conditions: Homo sapiens, A673; 72 h growth; read-out: Cell growth inhibition IC50/µM
Experimental: as §1

ACHN = conditions: Homo sapiens, ACHN; 72 h growth; read-out: Cell growth inhibition IC50/µM
Experimental: as §1

ASPC1 = conditions: Homo sapiens, ASPC1; 72 h growth; read-out: Cell growth inhibition IC50/µM
Experimental: as §1

BT20 = conditions: Homo sapiens, BT-20; 72 h growth; read-out: Cell growth inhibition IC50/µM
Experimental: as §1

BXPC3 = conditions: Homo sapiens, BXPC-3; 72 h growth; read-out: Cell growth inhibition IC50/µM
Experimental: as §1

GRANTA519 = conditions: Homo sapiens, Granta-519; 72 h growth; read-out: Cell growth inhibition IC50/µM
Experimental: as §1

HCT116 = conditions: Homo sapiens, HCT-116; 72 h growth; read-out: Cell growth inhibition IC50/µM
Experimental: as §1

HCT15 = conditions: Homo sapiens, HCT-15; 72 h growth; read-out: Cell growth inhibition IC50/µM
Experimental: as §1

HEPG2 = conditions: Homo sapiens, HepG2; 72 h growth; read-out: Cell growth inhibition IC50/µM
Experimental: as §1

HT1080 = conditions: Homo sapiens, HT-1080; 72 h growth; read-out: Cell growth inhibition IC50/µM
Experimental: as §1

JAR = conditions: 72 h growth; read-out: Cell growth inhibition IC50/µM
Experimental: as §1

MDAMB435 = conditions: Homo sapiens, MDA-MB-435; 72 h growth; read-out: Cell growth inhibition IC50/µM
Experimental: as §1

NCIH358M = conditions: NCI-H358M; 72 h growth; read-out: Cell growth inhibition IC50/µM
Experimental: as §1

PANC1 = conditions: Homo sapiens, PANC-1; 72 h growth; read-out: Cell growth inhibition IC50/µM
Experimental: as §1

PC3 = conditions: Homo sapiens, PC-3; 72 h growth; read-out: Cell growth inhibition IC50/µM
Experimental: as §1

SF295 = conditions: Homo sapiens, SF-295; 72 h growth; read-out: Cell growth inhibition IC50/µM
Experimental: as §1

SKMEL28 = conditions: Homo sapiens, SK-MEL-28; 72 h growth; read-out: Cell growth inhibition IC50/µM
Experimental: as §1

SKMEL5 = conditions: Homo sapiens, SK-MEL-5; 72 h growth; read-out: Cell growth inhibition IC50/µM
Experimental: as §1

SKNAS = conditions: Homo sapiens, SK-N-AS; 72 h growth; read-out: Cell growth inhibition IC50/µM
Experimental: as §1

SNB75 = conditions: Homo sapiens, SNB-75; 72 h growth; read-out: Cell growth inhibition IC50/µM
Experimental: as §1

SW620 = conditions: Homo sapiens, SW-620; 72 h growth; read-out: Cell growth inhibition IC50/µM
Experimental: as §1

THP1 = conditions: Homo sapiens, THP-1; 72 h growth; read-out: Cell growth inhibition IC50/µM
Experimental: as §1

Molecule `CCOC(=O)Cn1c2c(c3ccccc31)C[C@@H]1C[C@H]2C(OC)CN1C(=O)c1cccnc1SC` (single isomer, unassigned; (+)) [(+)-5a, Glupin] has an IC50 (A204) of 0.562 µM, an IC50 (A673) of 3.64 µM and an IC50 (ACHN) greater than 30 µM. It also gave an IC50 (ASPC1) of 0.695 µM, an IC50 (BT20) greater than 30 µM and an IC50 (BXPC3) of 0.591 µM. For the same molecule, the IC50 (GRANTA519) was greater than 30 µM, the IC50 (HCT116) was 1.47 µM and the IC50 (HCT15) was 0.407 µM. For the same molecule, the IC50 (HEPG2) was greater than 30 µM, the IC50 (HT1080) was 0.118 µM and the IC50 (JAR) was 0.886 µM. The IC50 (MDAMB435) was 0.513 µM, the IC50 (NCIH358M) was greater than 30 µM and the IC50 (PANC1) was 0.706 µM. The IC50 (PC3) was 0.827 µM, the IC50 (SF295) was 0.427 µM and the IC50 (SKMEL28) was greater than 30 µM. For the same molecule, the IC50 (SKMEL5) was greater than 30 µM, the IC50 (SKNAS) was 0.175 µM and the IC50 (SNB75) was 9.13 µM. For the same molecule, the IC50 (SW620) was greater than 30 µM and the IC50 (THP1) was greater than 30 µM.

Reference: publication PMC6900016, “Synthesis of Indomorphan Pseudo‐Natural Product Inhibitors of Glucose Transporters GLUT‐1 and ‐3” (Angewandte Chemie (International Ed. in English), 2019)
